Measured values reported in patent publication US20130317034A1, “COMBINATION THERAPY FOR TREATING DIABETES” (Japan Tobacco Inc., priority 2010, published 2013).

How the values were obtained:
rats fed a high fat diet [1] = experiment: Glucose tolerance test (GTT): plasma glucose levels; assay type: in vivo
Procedure: (§1) This example studied the combined effects of the compound of formula (I) and sitagliptin, i.e., a DPP-IV inhibitor, on plasma GLP-1 levels and glucose tolerance as evaluated in rats fed a high fat diet.
(§2) After the rats were fasted for 24 hours, either the compound of formula (I) (30 mg/kg) or vehicle (0.5% MC) was dosed orally. The rats were immediately fed with a high-fat diet for six hours and fasted overnight. Glucose tolerance tests (GTTs) were performed 30 minutes after dosing either sitagliptin or vehicle (0.5% MC). Dosing for each group is described in Tables 1 and 2 below.
(§3) At the start of the GTT, blood was collected to measure plasma GLP-1. The plasma glucose and insulin concentrations were measured before and after loading with the glucose solution. For the preparation of the glucose solution, glucose was diluted in saline at a concentration of 0.4 g/mL.
(§4) For the GTT, the rats were fasted overnight after six hours feeding. On the following day, 600-700 μL of blood were collected from the tail vein into tubes containing a DPP-IV inhibitor, aprotinin, and EDTA. Thereafter, a glucose solution at a dose of 1 g/2.5 mL/kg was loaded intraperitoneally. At 10, 30, 60, and 120 minutes after loading the glucose solution, 200-300 μL of blood were collected from the tail vein into tubes containing heparin. The blood was centrifuged at 10,000×g and 4° C. for five minutes to obtain the plasma.

[2] = Food consumption, body weight gain and body weight in rats fed a high fat diet; assay type: in vivo; conditions: Mean ± S.E. (n = 8)
Procedure: Forty-four eight week old male rats (Charles River Laboratories Japan, Inc.) were used for the experiment. Body weights and food weight were measured six days before and on the day before the dosing of the compound of formula (I). Body weight gain and food consumption were calculated for this period. Animals were fasted for 24 hours the day before dosing with the compound of formula (I). Using the body weights on the day of the dosing, body weight gain and food consumption as indicators, 32 rats were selected from those closest to the mean values. The rats were assigned to four groups (control, compound of formula (I) only, DPP-IV inhibitor only, and combination of compound of formula (I) and DPP-IV inhibitor) with eight animals in each group. One-way analysis of variance was performed using SAS Preclinical Package Version 5.0 and SAS System Version 8.2 (SAS Institute Japan Co., Ltd.) to verify that no significant intergroup differences were present after group allocation.
as §2
Food consumption was calculated according to the following formula: food consumption (g)=food weight before feeding (g)−food weight after feeding (g). Body weight gain was calculated according the following formula: body weight gain (g)=body weight after feeding (g)-body weight before feeding (g). There were no significant differences between the groups in food consumption and body weight gain for six hours after dosing, and in body weight at the start of GTT (Table 3).

rats fed a high fat diet [3] = experiment: Glucose tolerance test (GTT): plasma insulin levels; assay type: in vivo
Procedure: as §1, §2, §3, §4

plasma GLP-1 = experiment: Plasma GLP-1 level at the start of the GTT (GLP-1 (Active) ELISA); assay type: in vivo, rats
Procedure: as §1, §2, §3
For the GTT, the rats were fasted overnight after six hours feeding. On the following day, 600-700 μL of blood were collected from the tail vein into tubes containing a DPP-IV inhibitor, aprotinin, and EDTA. Thereafter, a glucose solution at a dose of 1 g/2.5 mL/kg was loaded intraperitoneally. […]
After 200 μL of plasma sampled before the glucose loading were added with […] of ethanol, the solution was thoroughly mixed. […] The GLP-1 concentration was measured by the ELISA method using a GLP-1 (Active) ELISA kit.

[4] = 0 min after glucose loading (1 g/kg ip), compound of formula (I) 30 mg/kg PO, sitagliptin 10 mg/kg PO
[5] = six hours high-fat feeding after dosing, compound of formula (I) 30 mg/kg PO

**Q.** With `N[C@@H](CC(=O)N1CCn2c(nnc2C(F)(F)F)C1)Cc1cc(F)c(F)cc1F` [sitagliptin] as the compound, how does the “Plasma Glucose Level” value (rats fed a high fat diet [1]; [4]) read?
**A.** 149 ± 6 mg/dL

**Q.** And the “Plasma Glucose Level” value (rats fed a high fat diet [1]; 10 min after glucose loading)?
**A.** 264 ± 16 mg/dL

**Q.** What about the “Plasma Glucose Level” value (rats fed a high fat diet [1]; 30 min after glucose loading) of the same compound?
**A.** 255 ± 12 mg/dL

**Q.** What about the “Plasma Glucose Level” value (rats fed a high fat diet [1]; 60 min after glucose loading) of the same compound?
**A.** 185 ± 8 mg/dL

**Q.** What about the “Plasma Glucose Level” value (rats fed a high fat diet [1]; 120 min after glucose loading) of the same compound?
**A.** 157 ± 5 mg/dL

**Q.** And the “Plasma glucose levels in the GTT, in words” value (rats fed a high fat diet [1]; at 60 minutes after glucose loading, versus control group)?
**A.** significantly decreased

**Q.** And the “AUC of Plasma Glucose Level” value (rats fed a high fat diet [1]; during the GTT, 0-120 min)?
**A.** 24095 ± 981 mg·min/dL

**Q.** What about the “AUC for the glucose levels during the GTT, in words” value (rats fed a high fat diet [1]; versus control group) of the same compound?
**A.** lower than that for the control group, although there were no statistically significant differences

**Q.** What about the “Body Weight” value ([2]; before GTT) of the same compound?
**A.** 352.7 ± 6.9 g

**Q.** What about the “Body Weight Gain” value [2, 5] of the same compound?
**A.** 15.5 ± 1.2 g

**Q.** What about the “Food Consumption” value [2, 5] of the same compound?
**A.** 15.2 ± 1.3 g

**Q.** What about the “Plasma Insulin Level” value (rats fed a high fat diet [3]; [4]) of the same compound?
**A.** 2.350 ± 0.439 ng/mL

**Q.** What about the “Plasma Insulin Level” value (rats fed a high fat diet [3]; 10 min after glucose loading) of the same compound?
**A.** 4.968 ± 0.562 ng/mL

**Q.** What about the “Plasma Insulin Level” value (rats fed a high fat diet [3]; 30 min after glucose loading) of the same compound?
**A.** 4.595 ± 0.675 ng/mL

**Q.** And the “Plasma Insulin Level” value (rats fed a high fat diet [3]; 60 min after glucose loading)?
**A.** 3.253 ± 0.749 ng/mL

**Q.** What about the “Plasma Insulin Level” value (rats fed a high fat diet [3]; 120 min after glucose loading) of the same compound?
**A.** 3.046 ± 0.435 ng/mL

**Q.** And the “AUC of Plasma Insulin Level” value (rats fed a high fat diet [3]; during the GTT, 0-120 min)?
**A.** 438.898 ± 72.779 ng·min/mL

**Q.** What about the “Plasma insulin levels during the GTT, in words” value (rats fed a high fat diet [3]; versus control group) of the same compound?
**A.** higher

**Q.** What about the “Plasma GLP-1 Level” value (plasma GLP-1; at the start of the GTT, compound of formula (I) 30 mg/kg PO day before, sitagliptin 10 mg/kg PO 30 min before GTT, Mean ± S.E. (n = 8)) of the same compound?
**A.** 1.800 ± 0.270 pmol/L

**Q.** And the “Plasma GLP-1 levels prior to glucose loading, in words” value (plasma GLP-1; versus control group)?
**A.** significantly higher
